Data as given in patent publication US11779014B2, “Adjuvants” (SYNGENTA PARTICIPATIONS AG, priority 2017, dated 2023).
One block for each molecule: values may come before it.

What was measured:
Avena fatua (AVEFA) = test: Glasshouse adjuvancy test for pinoxaden on AVEFA; format: in vivo; conditions: pinoxaden 15 g ai/ha, total surfactant 0.2% w/v, 21 days
Experimental: The efficacy of 1:1 blends of oleyl 20EO with oleyl 20EO with either n-hexanoyl, n-octanoyl or 2-ethyl hexanoyl ester caps as adjuvants for the herbicide pinoxaden was tested in a glasshouse against two weed species, sown into standard soil in pots and cultivated under controlled conditions in a glasshouse (20/16° C. day/night; 16 hours light; 65% humidity). Pinoxaden was added to the spray tank as a standard EC (emulsifiable concentrate) formulation. The plants were sprayed with pinoxaden at rates of 7.5 or 15 grams of pesticide per hectare using a laboratory track sprayer which delivered the aqueous spray composition at a rate of 200 litres per hectare, using a flat fan nozzle (Teejet 11002VS) at 2 bar. The spray solutions also contained the oleyl 20EO alone or in the 1:1 blends with the capped surfactants. The adjuvants were added to the spray solution at a total surfactant rate of 0.2% w/v. All spray solutions also contained 10% w/w of iso-propanol. The weed species and their BBCH growth stage at spraying were Avena fatua (AVEFA; growth stage 13) and Setaria viridis (SETVI; growth stage 13). Each spray test was replicated three times. The test plants were then grown in a glasshouse under controlled conditions (20/16° C. day/night; 16 hours light; 65% humidity) and watered twice a day. The efficacy of the herbicide was assessed visually and expressed as a percentage of the leaf area killed. Samples were assessed at a time period of 21 days following application.
Dodecyl 23EO and hexadecyl 20EO were capped with an n-hexyl ether cap. The efficacy of 1:1 blends of these with their uncapped counterparts were tested as adjuvants for the herbicide pinoxaden was tested in a glasshouse against two weed species, sown into standard soil in pots and cultivated under controlled conditions in a glasshouse (20/16° C. day/night; 16 hours light; 65% humidity). Pinoxaden was added to the spray tank as a standard EC (emulsifiable concentrate) formulation. The plants were sprayed with pinoxaden at a.i. rates of 7.5 or 15 grams per hectare using a laboratory track sprayer which delivered the aqueous spray composition at a rate of 200 litres per hectare, using a flat fan nozzle (Teejet 11002VS) at 2 bar. The spray solutions tested included the capped and uncapped alone or in the 1:1 blends with the capped surfactants. The adjuvants were added to the spray solution at a total surfactant rate of 0.2% w/v. All spray solutions also contained 10% w/w of iso-propanol. The weed species and their BBCH growth stage at spraying was Avena fatua (AVEFA; growth stage 12). Each spray test was replicated three times. The test plants were then grown in a glasshouse under controlled conditions (20/16° C. day/night; 16 hours light; 65% humidity) and watered twice a day. The efficacy of the herbicide was assessed visually and expressed as a percentage of the leaf area killed. Samples were assessed at a time period of 21 days following application.
Oleyl 20EO was capped with -butyl, n-pentyl and n-benzyl caps. The efficacy of 1:1 blends of these with their uncapped counterparts were tested as adjuvants for the herbicide pinoxaden was tested in a glasshouse against two weed species, sown into standard soil in pots and cultivated under controlled conditions in a glasshouse (20/16° C. day/night; 16 hours light; 65% humidity). Pinoxaden was added to the spray tank as a standard EC (emulsifiable concentrate) formulation. The plants were sprayed with pinoxaden at a.i. rates of 7.5 or 15 grams per hectare using a laboratory track sprayer which delivered the aqueous spray composition at a rate of 200 litres per hectare, using a flat fan nozzle (Teejet 11002VS) at 2 bar. The spray solutions tested included the capped and uncapped alone or in the 1:1 blends with the capped surfactants. The adjuvants were added to the spray solution at a total surfactant rate of 0.2% w/v. All spray solutions also contained 10% w/w of iso-propanol.

[1] = De-gelling temperature of aqueous surfactant blends by low shear rheology (Bohlin Gemini rheometer, storage modulus vs temperature); format: physicochemical
Experimental: The temperatures at which blends of capped and uncapped surfactants de-gel were determined by standard low shear rheology with a Bohlin™ Gemini rheometer. The storage modulus (G′) at 1 Hz was determined at a strain of 0.001-0.002 in a standard C14 cup and bob geometry over a temperature range of 5-70° C., the exact range depending on the de-gelling point of the sample. Plots of storage modulus versus temperature were constructed and the de-gelling temperature was taken to be the point at which the modulus begins to fall rapidly from its high value in the gelled state (typically ca. 10^5 Pa) down to the final value in the de-gelled state (less than 10 Pa). Blends of surfactants were prepared at from 25 to 40% w/w total surfactant concentration in water. Samples were left in an oven at 55° C. for several days to ensure that the mixtures were homogeneous. Samples were placed in the C14 cup and the samples were de-gelled by raising the temperature in the rheometer, the bob was then inserted and the sample was then cooled at 1° C./min, whilst the storage modulus was regularly recorded during the cooling. Once the final temperature had been reached (i.e. when the sample had gelled), the temperature was then increased again and the modulus again recorded. The de-gelling temperature was determined from the increasing temperature cycle.
Degelling temperatures—the measurements relied on the same method as for ‘Example 1’ but just at 30% w/w total surfactant concentration.
De-gelling temperatures were measured using the same method as in Example 1.
(§1) This example provides de-gelling, cloud point and adjuvancy data for dodecyl 23 ethoxylate with n-hexyl cap and hexadecyl 20 ethoxylate with n-hexyl cap Cloud points were measured as described in example 1 for 1% aqueous solutions of the capped and uncapped surfactants both individually and as blends (see Table 30). Degelling temperatures were also measured as outlined in example 1 for 25, 30, 35 and 40% aqueous solutions of the capped and uncapped surfactants both individually and as blends (see Table 31).
(§2) This example provides de-gelling, cloud point and adjuvancy data for oleyl 20 ethoxylate with n-butyl, n-pentyl or benzyl ether caps end capped oleyl 20 ethoxylate. Cloud points were measured as described in example 1 for 1% aqueous solutions of the capped and uncapped surfactants both individually and as blends. Degelling temperatures were also measured as outlined in example 1 for 25, 30, 35 and 40% aqueous solutions o of the capped and uncapped surfactants both individually and as blends.

[2] = Cloud point measurement (absorbance at 500 nm as a function of temperature); format: physicochemical
Experimental: Consistent with the standard method for measuring the cloud point of surfactants, the cloud point of each of the above blends was measured at a total concentration of 1% w/w in water using a Perkin Elmer spectrophotometer fitted with a PTP6 temperature controller. The absorbance of the solution at 500 nm wavelength was determined as a function of temperature. The cloud point was recorded as the onset of a rapid increase in absorbance as the solution began to cloud.
Cloud point—the measurements relied on the same method as for ‘Example 1’
Cloud points—were measured using the same method as in Example 1.
as §1, §2

[3] = tested on: Chenopodium album (CHEAL); test: Glasshouse adjuvancy test for nicosulfuron on CHEAL; format: in vivo
Experimental: (§3) The biological efficacies of blends of an oleyl 20 ethoxylate uncapped surfactant with an oleyl 20 ethoxylate surfactant with an n-hexyl ether cap as adjuvants for the herbicide nicosulfuron were tested in a glasshouse against three weed species sown into standard soil in pots and cultivated under controlled conditions in a glasshouse (24/18° C. day/night; 16 hours light; 65% humidity). Nicosulfuron was added to the spray tank as a standard WG (water dispersible granule) formulation. The plants were sprayed with nicosulfuron at rates of 15 or 60 grams of pesticide per hectare using a laboratory track sprayer which delivered the aqueous spray composition at a rate of 200 litres per hectare, using a flat fan nozzle (Teejet 11002VS) at 2 bar. The adjuvants were added to the spray solution at a total rate of 0.1 or 0.2% w/v in all cases and at extra lower rates for the oleyl 20EO alone and its 1:1 blend with the oleyl 20EO n-hexyl ether to show the dose response to these adjuvants. All spray solutions also contained 10% w/w of iso-propanol. The weed species and their BBCH growth stage at spraying were Chenopodium album (CHEAL; growth stage 15), Digitaria sanguinalis (DIGSA; growth stage 14), and Commelina benghalensis (COMBE; growth stage 14). Each spray test was replicated three times. The test plants were then grown in a glasshouse under controlled conditions (24/18° C. day/night; 16 hours light; 65% humidity) and watered twice a day. The efficacy of the herbicide was assessed visually and expressed as a percentage of the leaf area killed. Samples were assessed at a time period of 21 days following application. The following tables (3-8) show the effect of blends of the two surfactants at a total concentration of 0.2 and 0.1%. In each case the blends were 1:0, 3:1, 1:1, 1:3 and 0:1 w/w of oleyl 20EO:oleyl 20 EO n-hexyl ether.
The biological efficacies of blends of oleyl 20 ethoxylate and oleyl 20EO ethoxylate with a benzoate cap as adjuvants for the herbicide nicosulfuron were tested in a glasshouse using the same method as for ‘Example 1’ but against just two weed species and with just 0.2% w/v total adjuvant concentration. The weed species and their BBCH growth stage at spraying HI were Chenopodium album (CHEAL; growth stage 13-15) and Digitaria sanguinalis (DIGSA; growth stage 14-22).
The biological efficacies of 1:1 blends of an oleyl 20 ethoxylate uncapped surfactant with oleyl 20E ethoxylate surfactants with hexanoyl, n-octanoyl or 2-ethyl hexanoyl ester caps as adjuvants for the herbicide nicosulfuron were tested in a glasshouse using the same method as for ‘Example 1’ but against just one weed species and at 0.2% w/v tital adjuvant concentration. The weed species and its BBCH growth stage at spraying was Chenopodium album (CHEAL; growth stage 15).

[4] = tested on: Digitaria sanguinalis (DIGSA); test: Glasshouse adjuvancy test for nicosulfuron on DIGSA; format: in vivo
Experimental: as §3, with “ether. The biological efficacies of blends of oleyl 20 ethoxylate and oleyl 20EO ethoxylate with a benzoate cap as adjuvants for the herbicide nicosulfuron were tested in a glasshouse using the same method as for ‘Example 1’ but against just two weed species and with just 0.2% w/v total adjuvant concentration. The weed species and their BBCH growth stage at spraying HI were Chenopodium album (CHEAL; growth stage 13-15) and Digitaria sanguinalis (DIGSA; growth stage 14-22).” for “ether.”

[5] = dose response, nicosulfuron 15 g ai/ha, adjuvant 0%
[6] = dose response, nicosulfuron 60 g ai/ha, adjuvant 0%

De-gelling temperature ([1]; total surfactant concentration 25% w/w, Table 31): 23.2 °C
De-gelling temperature ([1]; total surfactant concentration 30% w/w, Table 31): 48.7 °C
De-gelling temperature ([1]; total surfactant concentration 35% w/w, Table 31): 66.1 °C
De-gelling temperature ([1]; total surfactant concentration 40% w/w, Table 31): 74.1 °C
Cloud point ([2]; 1% aqueous solutions, Table 30): >90.0 °C
Molecule: CCCCCCCCCCCCCCCCOCCOCCOCCOCCOCCOCCOCCOCCOCCOCCOCCOCCOCCOCCOCCOCCOCCOCCOCCOCCO [Hexadecyl 20EO, hexadecyl 20 ethoxylate]
Mean control (Avena fatua (AVEFA); Example 7, growth stage 12): 90.3%

De-gelling temperature ([1]; 30% w/w total surfactant concentration, Table 15): <3.8 °C
Cloud point ([2]; 1%, Table 15): 27.3 °C
Molecule: CCCCCCCC/C=C\CCCCCCCCOCCOCCOCCOCCOCCOCCOCCOCCOCCOCCOCCOCCOCCOCCOCCOCCOCCOCCOCCOCCOC(=O)c1ccccc1 [Oleyl 20EO benzoate, oleyl 20 ethoxylate benzoate]
Mean control ([3]; nicosulfuron 15 g ai/ha, 0.2% w/v total adjuvant, Example 3, growth stage 13-15): 75.0%
Mean control ([3]; nicosulfuron 60 g ai/ha, 0.2% w/v total adjuvant, Example 3, growth stage 13-15): 81.7%
Mean control ([4]; nicosulfuron 15 g ai/ha, 0.2% w/v total adjuvant, Example 3, growth stage 14-22): 96.7%
Mean control ([4]; nicosulfuron 60 g ai/ha, 0.2% w/v total adjuvant, Example 3, growth stage 14-22): 99.3%

Degelling temperature ([1]; total surfactant concentration 40% w/w, Table 18): 13.6 °C
Cloud point ([2]; 1%, Table 20): 28.0 °C
Molecule: CCCCCCCC/C=C\CCCCCCCCOCCOCCOCCOCCOCCOCCOCCOCCOCCOCCOCCOCCOCCOCCOCCOCCOCCOCCOCCOCCOC(=O)CCCCC [Oleyl 20EO n-hexanoyl ester, oleyl 20EO n-hexanoyl ester]

De-gelling temperature ([1]; 40% w/w, Table 19): 16.5 °C
Molecule: CCCCCCCC/C=C\CCCCCCCCOCCOCCOCCOCCOCCOCCOCCOCCOCCOCCOCCOCCOCCOCCOCCOCCOCCOCCOCCOCCOC(=O)CCCCCCC [Oleyl 20EO n-octanoyl ester, oleyl 20EO n-octanoyl ester]

Molecule: COc1cc(OC)nc(NC(=O)NS(=O)(=O)c2ncccc2C(=O)N(C)C)n1 [nicosulfuron]
Mean control [3, 5]: 4.0%
Mean control [3, 6]: 8.3%
Mean control [4, 5]: 4.0%
Mean control [4, 6]: 33.3%

Molecule: Oleyl 20EO n-butyl ether
Mean control (Avena fatua (AVEFA); Example 9, growth stage 12): 96.3%
